Source: patent US20190134148A1, “COMBINATION THERAPY” (BIG DNA LTD, priority 2016, published 2019)

Experiments:
[1] = phase II trials; heavily pretreated patient population; cited from earlier work
[2] = tested on: Cos7 cells; test: Sulforhodamine B relative cell growth assay in Cos7 cells; format: cell-based; conditions: COS-7 (αvβ3−ve); 10 μM proteasome inhibitor without cRGDfK
[3] = tested on: chymotrypsin-like activity of the proteasome; conditions: highest dose used in the phase I trial; cited from earlier work
[4] = tested on: HEK293 cells; test: Sulforhodamine B relative cell growth assay in HEK293 cells; format: cell-based; conditions: HEK293 (αvβ3+ve); 10 μM proteasome inhibitor without cRGDfK
Protocol: Established methodology was used to prepare 80-100% confluent monolayers of HEK293 cells in T75 flasks. Cells were cultured in DMEM (Lonza) supplemented with 10% FBS (Gibco), 2 mM L-glutamine, 100 U/mL penicillin and 100 μg/mL streptomycin (“complete DMEM”).
The cells in T75 flasks were trypsinised and resuspended in complete DMEM. The cells were counted using a Neubauer chamber and seeded at approximate density of 3×10^4 cells/cm^2 and 7500 cells/cm^2 in 96 well flat bottomed tissue culture plates (Corning) 0.1 mL cell suspension per well. Cells were incubated for 24 hours at 37° C./5% CO2 (humidified). […]
Briefly: medium was removed from wells and replaced with an equal volume of PBS. […] Optical density (OD570nm) was determined using an ELISA plate reader (Dynex MRX, Dynex Technologies).
In total, 5 replicates of the experiment were carried out. Cells treated with peptide/BTZ mixtures or control mixtures were incubated for 24 hours at 37° C./5% CO2 (humidified) then analysed by sulforhodamine B assay.
The average of the background measurements (i.e. no cells, medium only) was subtracted from each reading. ‘Ti’ is OD570nm following 24 hours treatment with drugs. […]
Using these equations, control cell growth is assigned a relative cell growth value of 100% and all cell growth values are calculated relative to this figure. […]

[5] = target: chymotrypsin-like sites (Homo sapiens, UniProt P28074); conditions: cited from earlier work
chymotrypsin-like sites, sequence (P28074 60-263): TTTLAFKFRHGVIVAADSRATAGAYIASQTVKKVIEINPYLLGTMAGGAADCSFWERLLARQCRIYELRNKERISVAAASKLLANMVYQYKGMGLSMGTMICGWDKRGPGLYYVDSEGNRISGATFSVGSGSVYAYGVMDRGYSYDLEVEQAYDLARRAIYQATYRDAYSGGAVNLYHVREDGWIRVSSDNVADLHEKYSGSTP

| SMILES | partial response rate [1] [%] | Growth relative to untreated control cells [2] | inhibition of the chymotrypsin-like activity of the proteasome in blood of patients [3] [%] | Growth relative to untreated control cells [4] | inhibition of the chymotrypsin-like sites [5] |
| --- | --- | --- | --- | --- | --- |
| CC(C)C[C@H](NC(=O)[C@H](CCc1ccccc1)NC(=O)CN1CCOCC1)C(=O)N[C@@H](Cc1ccccc1)C(=O)N[C@@H](CC(C)C)C(=O)[C@@]1(C)CO1 [Carfilzomib] | 24 | greater activity than ixazomib, delanzomib and oprozomib | 88 | greater activity than ixazomib, delanzomib and oprozomib |  |
| C[C@@]12OC(=O)[C@]1([C@@H](O)[C@@H]1C=CCCC1)NC(=O)[C@@H]2CCCl [Marizomib] |  |  |  |  | up to 100% |
